Tests used:
[1] = 2-week stability study of Fumagillin samples obtained by various methods, Fumagillin content by HPLC before and after stressing; type: physicochemical; conditions: for HPLC Assay, After 2 weeks at 40° C., ambient humidity / HPLC Assay, Initial: 3 equivalent acetic acid; for HPLC Assay, Initial: before stressing
Protocol: We carried out a 2-week stability study at 40 OC , ambient humidity, of selected samples obtained by various methods. The Fumagillin content of the samples was measured by HPLC before and after the stressing.

[2] = at -80 °C; cited from earlier work
[3] = sample liberated from methanol, crude product
[4] = sample liberated from methanol-dichloromethane 5:1, crude product
[5] = sample liberated from toluene, crude product
[6] = sample liberated in aqueous medium, followed by extraction with dichloromethane, concentration and crystallization in methanol

CO[C@@H]1[C@H](OC(=O)/C=C/C=C/C=C/C=C/C(=O)O)CC[C@]2(CO2)[C@H]1[C@@]1(C)O[C@@H]1CC=C(C)C [Fumagillin]
HPLC Assay, After 2 weeks at 40° C., ambient humidity [1, 3]: 85.1% | HPLC Assay, Initial [1, 3]: 97.6% | HPLC Assay, After 2 weeks at 40° C., ambient humidity [1, 4]: 49.9% | HPLC Assay, Initial [1, 4]: 96.3% | HPLC Assay, After 2 weeks at 40° C., ambient humidity [1, 5]: 61.0% | HPLC Assay, Initial [1, 5]: 92.6% | HPLC Assay, After 2 weeks at 40° C., ambient humidity [1, 6]: 54.9% | HPLC Assay, Initial [1, 6]: 96.9% | Stability compared with samples obtained by other methods ([1]; samples obtained by the alcoholic method, 2 weeks at 40 °C, ambient humidity): considerably more stable | Stability on storage [2]: stable
